Counter-ions that a name gives are not always drawn.
Assays:
[1] = target: T1, C656G mutant glucocorticoid receptor (Rattus norvegicus, UniProt P06536, C656G/D98G); conditions: CV-1 cells, FIG. 1; C656G vs wild type
T1 sequence (P06536 1-795 D98G/C656G): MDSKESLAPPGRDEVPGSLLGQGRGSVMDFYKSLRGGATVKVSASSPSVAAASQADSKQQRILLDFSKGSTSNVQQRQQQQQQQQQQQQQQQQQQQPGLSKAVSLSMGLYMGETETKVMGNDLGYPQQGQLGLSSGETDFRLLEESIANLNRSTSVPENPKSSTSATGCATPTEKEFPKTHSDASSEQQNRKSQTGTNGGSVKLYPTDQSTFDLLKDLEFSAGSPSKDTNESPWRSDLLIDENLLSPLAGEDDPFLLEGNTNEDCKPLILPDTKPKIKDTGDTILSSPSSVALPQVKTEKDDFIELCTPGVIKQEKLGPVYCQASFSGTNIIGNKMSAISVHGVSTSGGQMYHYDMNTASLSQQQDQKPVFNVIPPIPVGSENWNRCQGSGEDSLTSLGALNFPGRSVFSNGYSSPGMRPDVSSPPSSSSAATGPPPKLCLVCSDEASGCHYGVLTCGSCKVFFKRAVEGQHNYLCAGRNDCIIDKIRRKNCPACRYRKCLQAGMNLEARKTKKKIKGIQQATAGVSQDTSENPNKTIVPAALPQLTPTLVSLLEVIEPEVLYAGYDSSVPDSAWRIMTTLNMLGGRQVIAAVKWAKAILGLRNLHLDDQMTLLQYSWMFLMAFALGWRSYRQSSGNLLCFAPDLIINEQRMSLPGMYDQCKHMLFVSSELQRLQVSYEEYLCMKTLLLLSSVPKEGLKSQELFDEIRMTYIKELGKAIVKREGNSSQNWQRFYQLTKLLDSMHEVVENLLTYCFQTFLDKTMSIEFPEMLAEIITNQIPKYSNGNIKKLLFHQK
Procedure: The biological activity of wild type (.quadrature.) or C656G mutant ( ) receptors was determined in CV-1 cells as described in the Example Section. The determined amounts of CAT activity from each plate were then plotted as a function of the concentration of dexamethasone added to each.
Subconfluent cultures of CV-1 cells were co-transfected, using the standard calcium phosphate procedure, with 0.2 μg VARO receptor expression vector (containing the mutant receptor driven by the SV40 enhancer and the α-globulin promoter) and 1 μg G46TCO reporter vector (CAT gene driven by the thymidine kinase promoter [to -109 bp] and a 46 bp synthetic GRE derived from the murine mammary tumor virus long terminal repeat) for each 60 mm dish. Cells were incubated overnight at 37° C. in a 5% CO2 incubator with the DNA precipitates, after which they were washed twice with PBS, and fresh medium (Dulbecco's modified Eagle's medium H-16 supplemented with 5% fetal calf serum) was added together with the indicated hormone.
After an additional 24 hr, at 37° C. in a 5% CO2 incubator, extracts were prepared by four freeze-thaw cycles (-75° C., 65° C.) and centrifuged for 5 min at 15,000 xg. Heat-treated extracts (5 min, 65° C.) were normalized for protein content and the amount of expressed CAT enzyme activity was determined by a non-chromatographic assay (M. J. Sleigh, Anal. Biochem. 156:251-256 (1986)).

[2] = target: T1, C656G mutant glucocorticoid receptor; experiment: Competition binding assay with [3H]Dex, COS-7 cytosol, C656G receptor; parameters: Thus the full length receptor was removed from the VARO vector with BamHI and inserted into the SVL vector; expressed in transfected cells; host or cells: COS-7 (cytosol)
Procedure: Monolayer cultures of COS-7 cells were grown in DMEM (Gibco) supplemented with 5% fetal bovine serum (FBS) (Biofluids) at 37° C. in a 5% CO2 incubator. Standard calcium phosphate transfection methods were used to introduce the wild type and mutant receptor expression vectors (pSVL) into COS-7 cells (100 mm plates [Costar] at a cell density of about 10^6 /plate were each treated with 10 μg of plasmid DNA). After ~16 hrs of incubation at 37° C. in a 5% CO2 incubator, the excess calcium phosphate and precipitate were removed by washing with phosphate buffered saline (PBS). The cells were incubated at 37° C. for another ~48 hr in DMEM/ 5% FBS and harvested by trypsinization followed by centrifugation (for 10 min at 1570 ×g) and washing 3 times with PBS. The washed cells were stored at -80° C. until used.
COS-7 cell cytosol containing the steroid-free receptors was prepared by cell lysis at -80° C. and centrifugation at 15,000 ×g and labeled as described for HTC cells (S. S. Simons and P. A. Miller, Biochem 23:6876-6882 (1984)). Briefly, 30% cytosol solutions containing ~21 mM Na2 MoO4 were prepared with three parts COS-7 cell cytosol, 2 parts pH 9.5 TAPS buffer, and 5 parts pH 8.8 TAPS buffer. The total EtOH in each experiment was kept constant and at a level of ≤1%. […] After incubation for 2.5 hr, the [^3 H]Dex-Mes-labeled solutions were quick-frozen at -78° C. for subsequent SDS-polyacrylamide gel electrophoresis analysis. The specifically bound [^3 H]Dex was determined by first adding a 10% dextran-coated charcoal solution (added volume =20% of reaction solution volume) to remove free steroid and then subtracting the nonspecific binding seen in the presence of excess nonradioactive Dex.
Duplicate aliquots (72 μl) of COS-7 cell cytosol (33.5% in pH 8.8 TAPS/27 mM Na2 MoO4 buffer) were treated with 4 μl each of [^3 H]Dex (in pH 8.8 TAPS buffer) and various concentrations of non-radioactive competing steroid (in 20% EtOH in pH 8.8 TAPS buffer) (final concentration of [^3 H]Dex ≈3 ×10^-8 M). The average specific binding was determined after 2.5 or 24 hr of incubation as described above, expressed as percentage of the non-competed control and plotted versus the log10 of the concentration of the competing steroid.
The specificity of steroid binding was determined by Rodbard correction (Rodbard, 1973) of the data from a competition binding assay (S. S. Simons et al., Biochem. Biophys. Res. Comm. 86:793-800 (1979); Miller and Simons, 1988). The initial data were collected from 2.5 hr binding assays because of concerns about the stability of the receptors over longer times.

glucocorticoid receptor = conditions: Simons et al., 1987; cited from earlier work
[3] = system: mouse glucocorticoid receptor; conditions: L. I. Smith et al., 1988; cited from earlier work
glucocorticoid receptors = conditions: cited from earlier work
[4] = system: any other steroid receptors; conditions: cited from earlier work

C[C@@H]1C[C@H]2[C@@H]3CCC4=CC(=O)C=C[C@]4(C)[C@@]3(F)[C@@H](O)C[C@]2(C)[C@@]1(O)C(=O)CO [Dex, dexamethasone]
lower concentrations for Dex induction of CAT activity with C656G than with wild type receptor [1]: ~ 10 fold
greater preference of C656G than wild type receptor for glucocorticoids vs aldosterone and progesterone [2]: 10-19 fold

C[C@@H]1C[C@H]2[C@@H]3CCC4=CC(=O)C=C[C@]4(C)[C@@]3(F)[C@@H](O)C[C@]2(C)[C@@]1(O)C(=O)COS(C)(=O)=O [Dex-Mes, dexamethasone mesylate]
covalent labeling of receptor thiol by Dex-Mes (glucocorticoid receptor): covalently label just one thiol in the receptor, i.e., cysteine 656
labeling of the identical cysteine in mouse receptor by Dex-Mes [3]: also labeled

O=[As][O-].[Na+] [arsenite]
effect of preincubation of unbound receptors on steroid binding (glucocorticoid receptors): eliminates all steroid binding
effect on steroid binding activity of glucocorticoid receptors (glucocorticoid receptors): blocks the steroid binding activity of glucocorticoid receptors
effect on steroid binding activity of other steroid receptors [4]: not of any other steroid receptors

From US5215916A, “Super glucocorticoid receptors: receptors with increased affinity and specificity for glucocorticoid steriods” (priority 1991, dated 1993)
